We go through eleven molecules from paper PMC11945486, “TAS1R2/TAS1R3 Single-Nucleotide Polymorphisms Affect Sweet Taste Receptor Activation by Sweeteners: The SWEET Project” (Nutrients, 2025).

For orientation: EC50 means the concentration that produces a half-maximal response.

Where two headings read alike, the source gives them in different places. No end group written: not given here.

The target in the experiment is T1, human TAS1R2-WT/TAS1R3-G832R (Homo sapiens, UniProt Q7RTX0+Q8TE23, G832R).
T1 construct: expressed in transfected cells; host or cells: HEK293T stably expressing Gα16gust44
T1 sequence (Q8TE23 20-839): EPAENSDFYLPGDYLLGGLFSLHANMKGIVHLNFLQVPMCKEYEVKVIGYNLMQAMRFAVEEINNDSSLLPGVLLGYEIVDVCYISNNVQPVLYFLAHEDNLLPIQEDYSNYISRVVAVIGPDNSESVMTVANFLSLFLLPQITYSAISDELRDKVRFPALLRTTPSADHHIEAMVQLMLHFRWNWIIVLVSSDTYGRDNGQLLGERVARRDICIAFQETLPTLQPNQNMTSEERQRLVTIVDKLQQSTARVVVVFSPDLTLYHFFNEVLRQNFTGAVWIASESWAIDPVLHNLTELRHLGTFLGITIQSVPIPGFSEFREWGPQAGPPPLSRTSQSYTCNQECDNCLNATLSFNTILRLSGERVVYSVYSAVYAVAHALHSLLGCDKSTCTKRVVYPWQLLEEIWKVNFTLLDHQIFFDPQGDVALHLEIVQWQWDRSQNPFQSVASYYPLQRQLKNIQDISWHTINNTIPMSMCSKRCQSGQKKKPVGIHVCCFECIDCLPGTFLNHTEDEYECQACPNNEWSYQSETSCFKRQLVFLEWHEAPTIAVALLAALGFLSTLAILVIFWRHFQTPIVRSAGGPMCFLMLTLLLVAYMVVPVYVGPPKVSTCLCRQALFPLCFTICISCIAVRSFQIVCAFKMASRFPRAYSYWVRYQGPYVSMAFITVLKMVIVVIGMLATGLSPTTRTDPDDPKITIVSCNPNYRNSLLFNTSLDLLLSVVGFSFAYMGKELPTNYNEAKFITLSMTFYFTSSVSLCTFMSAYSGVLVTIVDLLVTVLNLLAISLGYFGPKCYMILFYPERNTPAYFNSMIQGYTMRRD
T1 sequence (Q7RTX0 21-852 G832R): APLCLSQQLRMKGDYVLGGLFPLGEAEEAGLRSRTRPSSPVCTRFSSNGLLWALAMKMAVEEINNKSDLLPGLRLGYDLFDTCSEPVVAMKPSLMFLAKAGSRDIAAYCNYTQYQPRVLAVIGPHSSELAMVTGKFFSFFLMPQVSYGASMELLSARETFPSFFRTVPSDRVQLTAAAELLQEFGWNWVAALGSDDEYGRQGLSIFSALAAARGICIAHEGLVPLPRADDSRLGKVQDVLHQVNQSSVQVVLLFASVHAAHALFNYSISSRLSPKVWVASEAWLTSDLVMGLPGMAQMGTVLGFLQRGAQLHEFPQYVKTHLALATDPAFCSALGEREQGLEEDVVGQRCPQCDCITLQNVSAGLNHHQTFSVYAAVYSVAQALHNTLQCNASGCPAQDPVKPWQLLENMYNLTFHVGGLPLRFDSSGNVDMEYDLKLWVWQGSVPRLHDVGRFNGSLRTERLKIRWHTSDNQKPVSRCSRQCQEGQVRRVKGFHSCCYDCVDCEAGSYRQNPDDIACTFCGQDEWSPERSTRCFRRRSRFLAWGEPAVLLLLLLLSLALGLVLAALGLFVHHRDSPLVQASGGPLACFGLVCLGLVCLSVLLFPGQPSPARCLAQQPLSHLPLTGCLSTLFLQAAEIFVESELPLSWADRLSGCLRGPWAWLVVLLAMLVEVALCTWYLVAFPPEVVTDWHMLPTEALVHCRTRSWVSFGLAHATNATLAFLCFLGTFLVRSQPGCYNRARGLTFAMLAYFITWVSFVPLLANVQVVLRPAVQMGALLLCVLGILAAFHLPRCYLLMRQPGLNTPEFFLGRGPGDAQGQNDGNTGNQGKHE
Kind of experiment: Calcium mobilisation assay, TAS1R2-WT with TAS1R3 variant G832R. The experiment is classed as cell-based. The note with it: for Max ΔF/F0: maximal signal amplitude. An excerpt: The coding sequences for TAS1R2 and TAS1R3 were commercially synthesised, and the human codon was optimised for expression in human cells. The coding sequences of human TAS1R2 and TAS1R3 were subcloned and inserted into the mammalian expression vectors pcDNA6/myc-HisA and pcDNA4/myc-HisA (Invitrogen; Thermo Fisher Scientific; Illkirch, France) between the EcoRI and NotI restriction sites, generating the plasmids pcDNA6-TAS1R2 and pcDNA4-TAS1R3, respectively. To increase protein expression in mammalian cells, an upstream start codon was used, which was a sequence called MAX, corresponding to the QBI SP163 element also described in pcDNA4-HisMax (Invitrogen; Thermo Fisher Scientific; Illkirch, France). To measure the expression level of the receptor by immunohistochemistry, we used the FLAG sequence ([…]) in the C-terminal position, which encodes the FLAG tag epitope. SNP variants of TAS1R2 and TAS1R3 were constructed based on […], respectively, using site-directed mutagenesis (Genewiz; Leipzig, Germany).
The HEK293T cells were kindly provided by Jay P. Slack (Givaudan Flavors Corporation; Cincinnati, OH, USA). HEK293T cells stably transfected with Gα16gust44 [43, 67] were seeded in poly-D-lysine-coated clear-bottom black 96-well plates (0.35 × 10^5 cells/well) in high-glucose DMEM supplemented with 2 mM GlutaMAX, 10% dialysed foetal bovine serum with penicillin/streptomycin and G418 (400 μg/mL) at 37 °C and 6.3% CO2 in a humidified atmosphere as previously reported. […] As a negative control, HEK293T cells were mock-transfected with the empty expression vector. After a further 24 h of incubation, the HEK293T cells were washed with C1 buffer (130 mM NaCl, 5 mM KCl, 10 mM HEPES pH 7.4 and 2 mM CaCl2). The 96-well plates containing the cells were then stimulated with sweet-tasting compounds. […] Different concentration ranges were tested depending on the sweet compound injected. The Ca^2+ changes were expressed as fractional changes in fluorescent light intensity: ΔF/F = (F − F0)/F0, where F was the fluorescent light intensity at each point, and F0 was the value of emitted fluorescent light prior to stimulus application. To calculate dose–response relationships, the changes in fluorescence upon stimulus application were averaged, mock-subtracted and baseline-corrected. The dose–response data obtained were adjusted using a 4-parameter logistic equation. The half-maximal effective concentrations (EC50 values) and maximal signal amplitudes were calculated using SigmaPlot software (version 15.0) (Systat Software; San Jose, CA, USA).
For in vitro calcium mobilisation assay performed on hTAS1R2-SNPs, hTAS1R3-SNPs and mTAS1R3-I60T, 6 to 7 concentrations were tested for each sweet compound, plus buffer alone. All concentration–receptor combinations were measured in duplicate, and each experiment was repeated at least 4 times (8 wells/concentration). Results were expressed for each concentration as ΔF/F mean ± SEM and represented as dose–response curves.
In general terms: Calcium assays in cells follow changes in intracellular calcium, usually with a dye or a luminescent sensor.

Turning to `OC[C@H]1O[C@H](O[C@]2(CCl)O[C@H](CCl)[C@@H](O)[C@@H]2O)[C@H](O)[C@@H](O)[C@H]1Cl` [Sucralose], the “R1 = Variant EC50/WT EC50” value was 0.7 and the “Max ΔF/F0” value is 0.91 ± 0.02. For the same molecule, the EC50 (read-out: EC50) was 81 ± 4 µM.
The matching figures for `C[C@H](CC[C@@H](O[C@@H]1O[C@H](CO[C@@H]2O[C@H](CO)[C@@H](O)[C@H](O)[C@H]2O)[C@@H](O)[C@H](O)[C@H]1O[C@@H]1O[C@H](CO)[C@@H](O)[C@H](O)[C@H]1O)C(C)(C)O)[C@H]1CC[C@@]2(C)[C@@H]3CC=C4[C@@H](CC[C@H](O[C@@H]5O[C@H](CO[C@@H]6O[C@H](CO)[C@@H](O)[C@H](O)[C@H]6O)[C@@H](O)[C@H](O)[C@H]5O)C4(C)C)[C@]3(C)[C@H](O)C[C@]12C` [Mogroside V, mogroside V]: 0.6, 1.23 ± 0.04 and 19.1 ± 1.7 µM.
`COC(=O)[C@H](Cc1ccccc1)NC(=O)[C@H](CC(=O)O)NCCC(C)(C)C` [Neotame]: the “R1 = Variant EC50/WT EC50” value is listed as 0.7 and the “Max ΔF/F0” value was 0.88 ± 0.02. For the same molecule, the concentration for a half-maximal effect (EC50) (read-out: EC50) amounted to 0.8 ± 0.07 µM.
For the molecule “brazzein (QDKCKKVYENYPVSKCQLANQCNYDCKLDKHARSGECFYDEKRNLQCICDYCEY; ends and bridges not checked; cysteine pairing not given here; UniProt P56552 1-54, looked up) [sweet-tasting protein obtained by recombinant production using the yeast Pichia pastoris]”, the “R1 = Variant EC50/WT EC50” value was 0.5 and the “Max ΔF/F0” value is reported as 0.97 ± 0.07. For the setting “brazzein”, the EC50 is 52.8 ± 15.7 µg/mL.
As for `C=C(C)[C@@H]1CC=C(/C=N/O)CC1` [Perillartine, perillartine], the “R1 = Variant EC50/WT EC50” value is reported as 0.5 and the “Max ΔF/F0” value was determined as 1.18 ± 0.14. For the same molecule, the EC50 (read-out: EC50) worked out at 7.2 ± 3 µM.
As for `CC1=CC(=O)NS(=O)(=O)O1` [Acesulfame K, acesulfame K], the “R1 = Variant EC50/WT EC50” value is listed as 0.8 and the “Max ΔF/F0” value is given as 0.55 ± 0.03. Also, where the note is “read-out: EC50”, the EC50 is 468 ± 64 µM.
With `C=C1C[C@@]23CC[C@H]4[C@@](C)(CCC[C@@]4(C)C(=O)O[C@@H]4O[C@H](CO)[C@@H](O)[C@H](O[C@@H]5O[C@H](CO)[C@@H](O)[C@H](O)[C@H]5O)[C@H]4O[C@@H]4O[C@H](CO)[C@@H](O)[C@H](O)[C@H]4O)[C@@H]2CC[C@]1(O[C@@H]1O[C@H](CO)[C@@H](O)[C@H](O[C@@H]2O[C@H](CO)[C@@H](O)[C@H](O)[C@H]2O)[C@H]1O[C@@H]1O[C@H](CO)[C@@H](O)[C@H](O)[C@H]1O)C3` [Rebaudioside M, rebaudioside M], the “R1 = Variant EC50/WT EC50” value was determined as 0.6 and the “Max ΔF/F0” value was found to be 1.38 ± 0.07. In addition, the EC50 (read-out: EC50) was 22.7 ± 3.2 µM.
As for `O=S(=O)(O)NC1CCCCC1` [Cyclamate, cyclamate], the EC50 (read-out: EC50) stood at 998 ± 46 µM.
`COc1ccc(CCC(=O)c2c(O)cc(O[C@@H]3O[C@H](CO)[C@@H](O)[C@H](O)[C@H]3O[C@@H]3O[C@@H](C)[C@H](O)[C@@H](O)[C@H]3O)cc2O)cc1O` [NHDC, neohesperidin dihydrochalcone]: the “R1 = Variant EC50/WT EC50” value is given as 0.6 and the “Max ΔF/F0” value was 1.03 ± 0.01. Also, for the setting “read-out: EC50”, the concentration for a half-maximal effect (EC50) stood at 28.1 ± 12.3 µM.
For the molecule thaumatin, the “R1 = Variant EC50/WT EC50” value is given as 0.5 and the “Max ΔF/F0” value came to 0.76 ± 0.03.

B1: thaumatin (protein)
chain: ATFEIVNRCSYTVWAAASKGDAALDAGGRQLNSGESWTINVEPGTKGGKIWARTDCYFDDSGSGICKTGDCGGLLRCKRFGRPPTTLAEFSLNQYGKDYIDISNIKGFNVPMDFSPTTRGCRGVRCAADIVGQCPAKLKAPGGGCNDACTVFQTSEYCCTTGKCGPTEYSRFFKRLCPDAFSYVLDKPTTVTCPGSSNYRVTFCPTA
modifications: Eight disulfides
notes: sweet-tasting plant protein, E957
For the molecule B1, the EC50 (read-out: EC50) worked out at 5.7 ± 0.7 µM.
